Our source for the GI50 and TGI values is PubChem BioAssay (NCI).

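Cells were grown in 96-well plates and exposed to each compound for 48 hours at five concentrations; endpoints were interpolated linearly between bracketing concentrations, or set to the highest concentration if not reached. GI50 is the concentration that inhibits growth by half. TGI marks complete inhibition of growth.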

Among the test systems are HOP-92 NSCLC; LOX IMVI melanoma; MCF7 breast; NCI-H226 lung; NCI-H460 lung; RPMI-8226 leukemia; SF-268 CNS; U251 CNS; A498 renal; CCRF-CEM leukemia.
What all share (assay): growth of human tumour cells (NCI), 48 h

As to `CCCCCCCCCCN=C(N)c1ccc(N2CCN(c3ccc(C(N)=NCCCCCCCCCC)cc3)CC2)cc1`, the GI50 with HOP-92 NSCLC is 5.88 µM; in the experiment on LOX IMVI melanoma, 3.5 µM; with MCF7 breast, 1550 nM; with NCI-H226 lung, 7.72 µM; with NCI-H460 lung, 1.97 µM; with RPMI-8226 leukemia, 1.96 µM. The GI50 in the experiment with SF-268 CNS was 2.27 µM; in the experiment on U251 CNS, 2440 nM. The TGI was 28.9 µM in the experiment on HOP-92 NSCLC; more than 50 µM in the experiment with LOX IMVI melanoma; more than 50 µM in the experiment on MCF7 breast; more than 50 µM in the experiment with NCI-H226 lung; more than 50 µM in the experiment on NCI-H460 lung; more than 50 µM with RPMI-8226 leukemia. Besides, the TGI with SF-268 CNS is 11.1 µM; in the experiment with U251 CNS it was more than 50 µM.

On to `CC[C@]12C=CCN3CC[C@@]4(c5ccc(OC)cc5N(C)[C@H]4[C@@](O)(C(=O)OC)[C@@H]1OC(=O)CCCN1CCN(CCCC(=O)O[C@@H]4[C@]5(CC)C=CCN6CC[C@@]7(c8ccc(OC)cc8N(C)[C@H]7[C@@]4(O)C(=O)OC)[C@@H]65)CC1)[C@@H]32`, for which the GI50 in the experiment with A498 renal is 1600 nM; in the experiment on CCRF-CEM leukemia it was 1.23 µM; in the experiment with LOX IMVI melanoma, 0.399 µM; in the experiment on MCF7 breast, 548 nM; with NCI-H226 lung, 1.73 µM; in the experiment with NCI-H460 lung, 1.11 µM. The GI50 with RPMI-8226 leukemia is 0.547 µM; in the experiment on SF-268 CNS, 0.919 µM; in the experiment on U251 CNS, 1350 nM. The TGI in the experiment with A498 renal was found to be 3.49 µM; with CCRF-CEM leukemia, 3.03 µM; in the experiment with LOX IMVI melanoma it was 1.5 µM; in the experiment on MCF7 breast, 1.96 µM; in the experiment with NCI-H226 lung, 3.47 µM; with NCI-H460 lung it was 2.5 µM. The TGI in the experiment with RPMI-8226 leukemia is 2.26 µM; in the experiment on SF-268 CNS it was 2.38 µM; with U251 CNS, 2.86 µM.

For the molecule `Cc1cccc(Oc2ccc(Nc3ncnc4ccc(NC(=O)CN(C)C)cc34)cc2Cl)c1`, the GI50 in the experiment on A498 renal is 1800 nM; in the experiment on CCRF-CEM leukemia, 2.54 µM; in the experiment with HOP-92 NSCLC it was 1.4 µM; with LOX IMVI melanoma, 1.53 µM; in the experiment with MCF7 breast, 1690 nM; in the experiment with NCI-H226 lung, 11.9 µM. Besides, the GI50 is 1.81 µM in the experiment on NCI-H460 lung, 1.47 µM in the experiment with SF-268 CNS and 1680 nM with U251 CNS. In addition, the TGI came out at 9.18 µM with A498 renal; 8.14 µM with CCRF-CEM leukemia; 3.99 µM in the experiment with HOP-92 NSCLC; 2.86 µM in the experiment with LOX IMVI melanoma; 3.87 µM in the experiment on MCF7 breast; 28.3 µM in the experiment on NCI-H226 lung. Also, the TGI in the experiment on NCI-H460 lung turned out to be 3.35 µM; in the experiment on SF-268 CNS, 3.1 µM; in the experiment with U251 CNS it was 3.29 µM.

Regarding `CC(=O)O[C@H]1C[C@@H]2[C@@]3(C)CC[C@H]4C[C@@]4(C)[C@@H]3CC[C@@]2(C)C2=CCC3=C(COC3=O)[C@]21C`, the GI50 was 33.6 µM in the experiment with CCRF-CEM leukemia; 16.7 µM in the experiment with HOP-92 NSCLC; 17.6 µM in the experiment on LOX IMVI melanoma; 24000 nM in the experiment on MCF7 breast; 16 µM in the experiment on NCI-H226 lung; 29.9 µM in the experiment with NCI-H460 lung. For the same molecule, the values for the GI50 in the experiment on RPMI-8226 leukemia, in the experiment on SF-268 CNS and in the experiment with U251 CNS were 17.9 µM, 21 µM and 17400 nM, respectively. Moreover, the TGI with CCRF-CEM leukemia was more than 100 µM; in the experiment with HOP-92 NSCLC, 35 µM; in the experiment on LOX IMVI melanoma it was 36.5 µM; in the experiment on MCF7 breast it was 89.8 µM; in the experiment on NCI-H226 lung, 32.6 µM; with NCI-H460 lung it was more than 100 µM. The TGI with RPMI-8226 leukemia turned out to be 50.2 µM; with SF-268 CNS, 46.9 µM; in the experiment on U251 CNS it was 36.3 µM.

Consider `NS(=O)(=O)c1cc2c(cc1Cl)NCNS2(=O)=O`, for which the TGI in the experiment on CCRF-CEM leukemia, in the experiment with HOP-92 NSCLC, with LOX IMVI melanoma, with MCF7 breast, in the experiment with NCI-H226 lung and in the experiment on NCI-H460 lung was more than 100 µM each time. In addition, the TGI in the experiment on RPMI-8226 leukemia, in the experiment on SF-268 CNS and with U251 CNS was more than 100 µM each time.

Turning to `FC(F)(F)c1cccc(CNC2CCN(CCc3ccccc3)CC2)c1`, the GI50 in the experiment with CCRF-CEM leukemia is 27 µM; in the experiment on HOP-92 NSCLC, 11.2 µM; in the experiment on LOX IMVI melanoma, 15.5 µM; with MCF7 breast it was 16000 nM; with NCI-H226 lung it was 62.4 µM; in the experiment with NCI-H460 lung it was 19.1 µM. The GI50 in the experiment on RPMI-8226 leukemia was 22.6 µM; with SF-268 CNS it was 40.3 µM; in the experiment on U251 CNS, 15600 nM. The TGI in the experiment on CCRF-CEM leukemia was 75.8 µM; with HOP-92 NSCLC, 47.1 µM; in the experiment with LOX IMVI melanoma, 29.1 µM; in the experiment on MCF7 breast it was 34.6 µM; in the experiment with NCI-H226 lung, more than 100 µM; with NCI-H460 lung, 39.6 µM. Besides, the TGI in the experiment on RPMI-8226 leukemia is 51.5 µM; in the experiment with SF-268 CNS, more than 100 µM; in the experiment with U251 CNS it was 35.6 µM.

In the case of `CCN1CCN(CC(=O)Nc2nc3ccc(NCc4ccc(Br)cc4)cc3s2)CC1`, the GI50 was 1760 nM with A498 renal; 1.21 µM with HOP-92 NSCLC; 2050 nM with MCF7 breast; 7.89 µM in the experiment on NCI-H226 lung; 1.54 µM with RPMI-8226 leukemia; 1920 nM with U251 CNS. In addition, the TGI in the experiment on A498 renal was 3.46 µM; with HOP-92 NSCLC, 3.04 µM; in the experiment on MCF7 breast, 4.9 µM; with NCI-H226 lung, more than 100 µM; with RPMI-8226 leukemia, 4.07 µM; with U251 CNS, 3.79 µM.

On to `COc1cc2c(cc1OCCN1CCN(CCN3C(=O)c4cccc5cccc(c45)C3=O)CC1)N=C[C@@H]1CCCN1C2=O`, for which the GI50 is 20500 nM with A498 renal; 19.9 µM in the experiment on CCRF-CEM leukemia; 32.7 µM in the experiment on LOX IMVI melanoma; 15800 nM in the experiment with MCF7 breast; 20.1 µM in the experiment with NCI-H226 lung; 18.1 µM in the experiment with NCI-H460 lung. Also, the results for the GI50 in the experiment with RPMI-8226 leukemia, with SF-268 CNS and with U251 CNS were 17.1 µM, 15.8 µM and 16100 nM, respectively. For the same molecule, the TGI was 40.4 µM in the experiment with A498 renal; 39 µM in the experiment on CCRF-CEM leukemia; more than 100 µM in the experiment with LOX IMVI melanoma; 32.4 µM with MCF7 breast; 40.3 µM in the experiment on NCI-H226 lung; 42.8 µM with NCI-H460 lung. The TGI was 34.8 µM in the experiment on RPMI-8226 leukemia, 33 µM in the experiment on SF-268 CNS and 34.1 µM with U251 CNS.
